{
  "source": "patent US11559527B2",
  "about": "(priority 2017, dated 2023)",
  "type_in_all_cases": "cell-based, Human",
  "key": {"MCF7 cells [1]": {"tested_on": "MCF7 cells", "test": "Bradford assay (protein content as indicator of cell viability)", "conditions": "2 days", "description": "The inventors sought to evaluate whether mDIVI-1-induced inhibition of DRP1 has repercussion on the viability of MCF7 cells. […] Similar results were obtained using the Bradford assay, which measures protein content, as an indicator of cell viability.\nEXTRACELLULAR FLUX […] AND BRADFORD ASSAY: Extracellular acidification rate (ECAR) and oxygen consumption rate (OCR) were measured in a XF96 Extracellular Flux Analyzer (Seahorse Biosciences). Briefly, 1×10^4 MCF7 cells per well were seeded in XF96 plates and incubated with complete medium. When cells were attached, mDIVI-1 and vehicle treatments were added. Six replicates were run for each condition. After 48 hours, un-buffered DMEM XF medium supplemented with 2 mM glutamine (pH 7.4) was added to the cells, and placed in a 37° C. CO2-free incubator for 1 hour. Ten mM glucose, 1 μM oligomycin and 100 mM 2-deoxyglucose (2-DG) were injected into the media at different time points and ECAR was measured. Likewise, ECAR and OCR were quantified using un-buffered DMEM XF medium supplemented with 2 mM glutamine, 2 mM sodium pyruvate and 10 mM glucose. One μM oligomycin, 0.9 μM FCCP and 1 μM rotenone and antimycin A were injected into the media at different time points and OCR and ECAR were measured. […] All parameters were calculated according to manufacturer."}, "MCF7 cells [2]": {"tested_on": "MCF7 cells", "test": "CD24/CD44 expression by FACS", "description": "In human breast cancers, CSCs were first identified by the profile of expression of the cell surface marker CD24^−/CD44^+.\nThis is evident in FIGS. 10A and 10B.\nThe surviving fraction after 2 days and 5 days of growth was analyzed by FACS. MCF7 cells were either trypsinised or spun down and trypsinised and incubated with CD24 (IOTest CD24-PE, Beckman Coulter) and CD44 (APC mouse anti-human CD44, 559942, BD Pharmingen) for 15 minutes on ice. Cells were then rinsed twice in PBS, spun down, and resuspended with DAPI dye (D1306, Molecular probes) at 3 μM in PBS for 10 minutes. Samples were then analyzed by FACS (Fortessa, BD Bioscence). Only the live cell population, identified using the DAPI staining, was analyzed for CD24/CD44 expression. Data were analyzed using FlowJo software."}, "MCF7 cells [3]": {"tested_on": "MCF7 cells", "test": "Label-free quantitative proteomics", "conditions": "MCF7, 10 μM", "from_the_text": "Following protein digestion with trypsin, peptide fractions were processed on an LTQ-Orbitrap XL mass spectrometer. Those peptides identified were further analyzed to find proteomic changes between mDIVI-1-treated and vehicle-treated MCF7 cells, as described before. […] First, the inventors searched the proteomics datasets for changes in proteins involved in metabolism. […] That may possibly translate into a loss of antioxidant power, as the pentose phosphate pathway is a major source of NADPH.\nLABEL-FREE SEMI-QUANTITATIVE PROTEOMICS: Chemicals and sample preparation. Formic acid, trifluoroacetic acid, ammonium formate (10 M), ammonium bicarbonate TCEP (Tris (2-carboxyethyl)phosphine hydrochloride), MMTS (Methyl methanethiosulfonate) and trypsin were all obtained from Sigma. HPLC gradient grade acetonitrile was obtained from Fisher Scientific. Briefly, 2×10^6 MCF7 cells were seeded in 15 cm plates until cells were attached. […] As control, vehicle-treated cells were processed in parallel. After 48 hours of treatment, cells were lysed in RIPA buffer (R0278, Sigma) and kept at 4° C. for 20 minutes with rotation. Lysates were cleared by centrifugation for 10 minutes at 10,000×g and supernatants were collected and kept frozen at −80° C.\nPROTEIN DIGESTION: Lysate samples were thawed to room temperature and their concentrations equalized to 1 μg/μL (50 μL volume) with RIPA buffer, and further processed for trypsin digestion by sequential reduction of disulphide bonds with TCEP and alkylation with MMTS. Briefly, 1 μL benzonase (Novagen) was added to the 50 μL aliquot and placed on ice for 15 minutes. The sample was then taken to dryness using a SpeedVac, and resuspended in 22.5 μL trypsin reaction buffer (40 mM ammonium bicarbonate and 9% acetonitrile). One μL of 50 mM TCEP solution was added to each sample, mixed briefly and placed on a heater block at 60° C. for 60 minutes. After cooling to room temperature, 0.5 μL of 200 mM MMTS solution was added to each sample and allowed to react for 15 minutes. Trypsin was added in two waves to ensure efficient digestion of the sample. Firstly, 20 μg of sequencing grade trypsin was resuspended in 1800 μL of trypsin reaction buffer; 225 μL of this solution were added to each sample for digestion, and the reactions were left at 37° C. overnight with shaking (600 rpm). The following morning, a further aliquot of trypsin was added. Two ml of trypsin reaction buffer was added to 20 μL of sequencing grade trypsin; 250 μL of this solution were added to each of the digest samples from overnight, and the reactions were left at 37° C. for 4 hours with shaking (600 rpm). Thirty-five μL 10% formic acid were added to the 500 μL digest sample (0.7% final concentration of formic acid) to stop the digestion. The digested solution was diluted in 7.5 mL of acetonitrile containing 0.3% formic acid.\nHILIC solid phase extraction (SPE) of peptides. PolyhydroxyethylA SPE 12 μm, 300 A, 300 mg cartridges (obtained from PolyLC) were used for the HILIC procedure. Prior to use, cartridges required an overnight soak in 50 mM formic acid followed by rinsing with water the following day. Cartridges were preconditioned with 2 mL of Buffer A (90% acetonitrile, 5 mM ammonium formate, pH 2.7) followed by 2 mL of Buffer B (5 mM ammonium formate, pH 2.7) and finally re-equilibrated with 10 mL Buffer A. The diluted samples were loaded onto the cartridges and washed with a further 10 mL Buffer A. Finally, peptides were eluted in 1 mL Buffer C (9 parts Buffer B plus 1 part Buffer A) and the samples dried on a Speedvac to remove organic solvent prior to LC-MS/MS analysis.\nLC-MS/MS analysis. Lyophilised digests were resuspended in 50 μL of 0.1% TFA to give an approximate concentration of 1 μg/μL. One μL injection volumes were used throughout resulting in an on-column peptide loading of approximately 1 μg per injection. Analysis was performed in quintuplicate for each sample. […]"}},
  "data": [
    {"molecule": "COc1cc(-n2c(S)nc3ccccc3c2=O)c(Cl)cc1Cl", "note": "[mDIVI-1, 3-(2,4-Dichloro-5-methoxyphenyl)-2-sulfanyl-4(3H)-quinazolinone]", "values": [
      {"measurement": "MCF7 protein content", "setting": "MCF7 cells [1]; 20 μM", "result": "significantly reduced"},
      {"measurement": "MCF7 protein content", "setting": "MCF7 cells [1]; 50 μM", "result": "significantly reduced"},
      {"measurement": "abundance of CD24−/CD44+ subpopulation", "setting": "MCF7 cells [2]; MCF7 grown as monolayers, 10 or 50 μM, vs vehicle", "result": "not reduced"},
      {"measurement": "amount of CD24−/CD44+ cells", "setting": "MCF7 cells [2]; MCF7 in suspension, dose-dependent", "result": "increased"},
      {"measurement": "Change in expression: Hexokinase 1 (HK1)", "setting": "MCF7 cells [3]; Glycolysis, 48 hours", "result": "↓Infinite"},
      {"measurement": "BMP7 expression change (proteomics)", "setting": "MCF7 cells [3]; 48 hours vs vehicle", "result": "−47.17"},
      {"measurement": "CELSR2 expression change (proteomics)", "setting": "MCF7 cells [3]; 48 hours vs vehicle", "result": "−1.6"},
      {"measurement": "EPCAM expression change (proteomics)", "setting": "MCF7 cells [3]; 48 hours vs vehicle", "result": "−1.58"},
      {"measurement": "EphA2 expression change (proteomics)", "setting": "MCF7 cells [3]; 48 hours vs vehicle", "result": "−1.74"},
      {"measurement": "F11 receptor expression change (proteomics)", "setting": "MCF7 cells [3]; 48 hours vs vehicle", "result": "−1.70"},
      {"measurement": "LAMP1 expression change, upregulated (proteomics)", "setting": "MCF7 cells [3]; 48 hours vs vehicle", "result": 2.83},
      {"measurement": "STAT3 expression change (proteomics)", "setting": "MCF7 cells [3]; 48 hours vs vehicle", "result": "−1.83"},
      {"measurement": "ZO-1 expression change (proteomics)", "setting": "MCF7 cells [3]; 48 hours vs vehicle", "result": "−1.62"},
      {"measurement": "collagen type IV upregulation (proteomics)", "setting": "MCF7 cells [3]; 48 hours vs vehicle", "result": 1.9, "unit": "fold"},
      {"measurement": "desmoplakin expression change (proteomics)", "setting": "MCF7 cells [3]; 48 hours vs vehicle", "result": "−4.58"},
      {"measurement": "junction plakoglobin expression change (proteomics)", "setting": "MCF7 cells [3]; 48 hours vs vehicle", "result": "−1.65"},
      {"measurement": "keratin 8 expression change (proteomics)", "setting": "MCF7 cells [3]; 48 hours vs vehicle", "result": "−5.24"},
      {"measurement": "keratin 18 expression change (proteomics)", "setting": "MCF7 cells [3]; 48 hours vs vehicle", "result": "−12.21"}
    ]}
  ]
}
